Results reported in US9522888B2, “Substituted bicyclic compounds” (BRISTOL-MYERS SQUIBB COMPANY, priority 2014, dated 2016).
pEC50, pIC50: −log10 of the molar value. Where two headings read alike, the source gives them in different places.

What was measured:
human S1P1 = human S1P1 (Homo sapiens (Human), UniProt P21453); assay: S1P1 binding assay (33P-S1P radioligand competition, CHO cell membranes)
Method: Membranes were prepared from CHO cells expressing human S1P1. Cells pellets (1×10^9 cells/pellet) were suspended in buffer containing 20 mM HEPES (4-(2-hydroxyethyl)-1-piperazineethanesulfonic acid), pH 7.5, 50 mM NaCl, 2 mM EDTA (Ethylenediaminetetraacetic acid) and Protease Inhibitor cocktail (Roche), and disrupted on ice using the Polytron homogenizer. The homogenate was centrifuged at 20,000 rpm (48,000 g) and the supernatant was discarded. The membrane pellets were resuspended in buffer containing 50 mM HEPES, pH 7.5, 100 mM NaCl, 1 mM MgCl2, 2 mM EDTA and stored in aliquots at −80° C. after protein concentration determination.

[1] = biological target: S1P1 (membranes prepared from S1P1/CHO cells) (Homo sapiens (Human), UniProt P21453); assay: Receptor [35S] GTPγS binding assay (S1P1 GTPγS); format: biochemical; conditions: for activity as an agonist of S1P1: GTPγS S1P1 binding assay, result in words
S1P1 (membranes prepared from S1P1/CHO cells), sequence (P21453 whole entry): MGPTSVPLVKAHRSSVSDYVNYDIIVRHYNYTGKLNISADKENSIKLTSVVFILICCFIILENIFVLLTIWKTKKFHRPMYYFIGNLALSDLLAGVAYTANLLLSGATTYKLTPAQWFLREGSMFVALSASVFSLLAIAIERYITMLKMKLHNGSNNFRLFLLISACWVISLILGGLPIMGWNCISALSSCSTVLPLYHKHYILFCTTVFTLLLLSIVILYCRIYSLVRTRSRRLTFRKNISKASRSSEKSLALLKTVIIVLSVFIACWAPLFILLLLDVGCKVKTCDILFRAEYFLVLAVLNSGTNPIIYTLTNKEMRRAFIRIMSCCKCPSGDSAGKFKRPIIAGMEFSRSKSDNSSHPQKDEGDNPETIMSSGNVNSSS
Method: (§1) Receptor [^35S] GTPγS Binding Assays: (S1P1 GTPγS/S1P3 GTPγS)
Compounds were loaded in a 384 Falcon v-bottom plate (0.5 μl/well in a 11 point, 3-fold dilution). Membranes prepared from S1P1/CHO cells or EDG3-Gal5-bla HEK293T cells (EDG3 equivalent S1P3) were added to the compound plate (40 μl/well, final protein 3 μg/well) with MULTIDROP®. [^35S] GTP (1250 Ci/mmol, Perkin Elmer) was diluted in assay buffer: 20 mM HEPES, pH7.5, 10 mM MgCl2, 150 mM NaCl, 1 mM EGTA (ethylene glycol tetraacetic acid), 1 mM DTT (Dithiothreitol), 10 μM GDP, 0.1% fatty acid free BSA, and 10 μg/ml Saponin to 0.4 nM. 40 μl of the [^35S] GTP solution was added to the compound plate with a final concentration of 0.2 nM. The reaction was kept at room temperature for 45 min. At the end of incubation, all the mixtures in the compound plate were transferred to Millipore 384-well FB filter plates via the VELOCITY11® Vprep liquid handler. The filter plate was washed with water 4 times by using the manifold Embla plate washer and dried at 60° C. for 45 min. MicroScint 20 scintillation fluid (30 μl) was added to each well for counting on the Packard TOPCOUNT®. […]

[2] = biological target: S1P3 (membranes prepared from EDG3-Gal5-bla HEK293T cells) (Homo sapiens (Human), UniProt Q99500); assay: Receptor [35S] GTPγS binding assay (S1P3 GTPγS); format: biochemical
S1P3 (membranes prepared from EDG3-Gal5-bla HEK293T cells), sequence (Q99500 whole entry): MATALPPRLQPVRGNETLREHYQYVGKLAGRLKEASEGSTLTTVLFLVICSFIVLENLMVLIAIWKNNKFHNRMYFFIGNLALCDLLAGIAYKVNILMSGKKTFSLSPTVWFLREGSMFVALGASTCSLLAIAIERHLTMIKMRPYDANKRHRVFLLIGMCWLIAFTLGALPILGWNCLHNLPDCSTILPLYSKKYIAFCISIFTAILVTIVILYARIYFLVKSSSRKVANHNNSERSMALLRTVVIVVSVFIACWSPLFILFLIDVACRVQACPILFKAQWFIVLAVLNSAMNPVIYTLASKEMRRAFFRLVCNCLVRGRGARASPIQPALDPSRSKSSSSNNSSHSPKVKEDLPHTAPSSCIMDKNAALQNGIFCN
Method: as §1
Compounds were loaded in a 384 Falcon v-bottom plate (0.5 μl/well in a 11 point, 3-fold dilution). Membranes prepared from S1P1/CHO cells or EDG3-Gal5-bla HEK293T cells (EDG3 equivalent S1P3) were added to the compound plate (40 μl/well, final protein 3 μg/well) with MULTIDROP®. [^35S] GTP (1250 Ci/mmol, Perkin Elmer) was diluted in assay buffer: 20 mM HEPES, pH7.5, 10 mM MgCl2, 150 mM NaCl, 1 mM EGTA (ethylene glycol tetraacetic acid), 1 mM DTT (Dithiothreitol), 10 μM GDP, 0.1% fatty acid free BSA, and 10 μg/ml Saponin to 0.4 nM. 40 μl of the [^35S] GTP solution was added to the compound plate with a final concentration of 0.2 nM. The reaction was kept at room temperature for 45 min. At the end of incubation, all the mixtures in the compound plate were transferred to Millipore 384-well FB filter plates via the VELOCITY11® Vprep liquid handler. The filter plate was washed with water 4 times by using the manifold Embla plate washer and dried at 60° C. for 45 min. MicroScint 20 scintillation fluid (30 μl) was added to each well for counting on the Packard TOPCOUNT®.
A smaller value for GTPγS S1P1 EC50 value indicated greater activity for the compound in the GTPγS S1P1 binding assay. A larger value for the GTPγS S1P3 EC50 value indicated less activity in the GTPγS S1P3 binding assay. […] Thus the compounds of the present invention may be used in treating, preventing, or curing various S1P1 receptor-related conditions while reducing or minimizing the side effects due to S1P3 activity. The selectivity of the compounds of the present invention indicate their potential use in treating, preventing, or curing autoimmune and inflammatory diseases such as multiple sclerosis, rheumatoid arthritis, inflammatory bowel disease, lupus, psoriasis, or vascular diseases, while reducing or minimizing possible side effects due to S1P3 activity. Other potential uses of the compounds of the present invention include minimizing or reducing rejection of transplanted organs, while reducing or minimizing side effects due to S1P3 activity.

hS1P1/CHO cells = hS1P1/CHO cells (Homo sapiens (Human), UniProt P21453); assay: hS1P1 ERK phosphorylation (S1P1 pERK); format: cell-based; conditions: phosphate examples
hS1P1/CHO cells, sequence (P21453 whole entry): as the sequence (P21453 whole entry) above
Method: hS1P1 ERK Phosphorylation (S1P1 pERK)
hS1P1/CHO cells were plated into BD Amine 384-well plates the day before the assay. On the day of the assay, growth medium was removed and replaced with serum-free medium (Ham's F-12 Invitrogen) and incubated for 2 hours. Test compounds pre-diluted in HBSS (Gibco)/20 mM HEPES (Gibco) were transferred to the cell plates and incubated for 7 minutes at 37° C. Cells were lysed in lysis buffer (Perkin Elmer) and phospho-ERK was measured using the SureFire pERK kit (Perkin Elmer) as described by the manufacturer. Data was plotted as percentage activation of the test compound relative to the efficacy of 10 μM S1P.

[3] = 33P-S1P competition, membranes of CHO cells expressing human S1P1, read-out: S1P1 Binding IC50
[4] = [35S]GTPγS, S1P1/CHO cell membranes, read-out: GTPγS S1P1 EC50
[5] = [35S]GTPγS, EDG3-Gal5-bla HEK293T cell membranes, read-out: GTPγS S1P3 EC50
[6] = phosphate examples, read-out: S1P1 Binding
[7] = phosphate examples, read-out: S1P1 GTPγS
[8] = phosphate examples, read-out: S1P3 GTPγS

human S1P1, sequence (P21453 whole entry): as above

Compound: COCCCCCC1CCc2cc([C@H]3CC[C@](N)(COP(=O)(O)O)C3)ccc2C1 (single isomer, unassigned) [Example 689]
- pIC50 (human S1P1; [3]): 8.77
- activity as an agonist of S1P1 [1]: possessed activity as an agonist of S1P1
- pEC50 [1, 4]: 8.24
- selectivity over S1P3 ([2]; GTPγS S1P1 versus GTPγS S1P3, result in words): selective over S1P3
- pEC50 [2, 5]: < 5.70
- pEC50 ([2]; membranes prepared from EDG3-Gal5-bla HEK293T cells, read-out: GTPγS S1P3 EC50): < 5.70

Compound: CC(C)CO/N=C1/CCc2cc([C@H]3CC[C@](N)(COP(=O)(O)O)C3)ccc2C1 [compound 666]
- pIC50 (human S1P1; [6]): 6.00 to 7.00
- pEC50 [1, 7]: 6.00 to 7.00
- pEC50 [2, 8]: < 6.20

Compound: CCCCCC[C@H]1CCc2cc([C@H]3CC[C@](N)(COP(=O)(O)O)C3)c(I)cc2C1 [compound 620]
- pIC50 (human S1P1; [6]): 7.00 to 8.00
- pEC50 [1, 7]: > 8.00
- pEC50 [2, 8]: < 6.20

Compound: COCCCCCC1CCc2cc([C@H]3CC[C@](N)(COP(=O)(O)O)C3)ccc2C1 (single isomer, unassigned) [Example 690]
- pIC50 (human S1P1; [3]): 8.52
- pEC50 [1, 4]: 7.67
- pEC50 [2, 5]: < 6.20

Compound: COc1ccccc1CC[C@@H]1CCc2cc([C@@H]3CC[C@](N)(COP(=O)(O)O)C3)ccc2C1 [Example 699]
- pEC50 [2, 5]: < 6.20

Compound: CCCCCC(=O)OC1CCc2cc([C@H]3CC[C@](N)(COP(=O)(O)O)C3)ccc2C1 (stereo partly drawn) [compound 623]
- pIC50 (human S1P1; [6]): > 8.00
- pEC50 [1, 7]: > 8.00
- pEC50 [2, 8]: < 6.20

Compound: C=CCCOCCO[C@H]1CCc2cc([C@@H]3CC[C@@](N)(COP(=O)(O)O)C3)ccc2C1 [compound 584]
- pIC50 (human S1P1; [6]): > 8.00
- pEC50 [1, 7]: > 8.00
- pEC50 [2, 8]: < 6.20

Compound: CCOCCCC1CCc2cc([C@H]3CC[C@](N)(COP(=O)(O)O)C3)ccc2C1 (single isomer, unassigned) [Example 695]
- pEC50 [2, 5]: < 6.20

Compound: COc1ccccc1CC[C@@H]1CCc2cc([C@H]3CC[C@](N)(COP(=O)(O)O)C3)ccc2C1 (single isomer, unassigned) [Example 697]
- pEC50 [2, 5]: < 6.00

Compound: CC(C)=CCOCCO[C@@H]1CCc2cc(C3CCC(N)(COP(=O)(O)O)C3)ccc2C1 (single isomer, unassigned) [compound 580]
- pIC50 (human S1P1; [6]): 7.00 to 8.00
- pEC50 [1, 7]: 7.00 to 8.00
- pEC50 [2, 8]: < 6.20

Compound: CCCCCC[C@H]1CCc2cc([C@H]3CC[C@](N)(COP(=O)(O)O)C3)c(C)cc2C1 [compound 622]
- pIC50 (human S1P1; [6]): > 8.00
- pEC50 [1, 7]: > 8.00
- pEC50 [2, 8]: < 6.20

Compound: CCCCCCO[C@@H]1CCc2cc([C@@H]3CC[C@](N)(COP(=O)(O)O)C3)ccc2C1 [compound 435]
- pIC50 (human S1P1; [6]): 7.00 to 8.00
- pEC50 [2, 8]: < 6.20

Compound: N[C@@]1(COP(=O)(O)O)CC[C@@H](c2ccc3c(c2)CC[C@H](OCCOCc2ccccc2)C3)C1 [compound 581]
- pIC50 (human S1P1; [6]): > 8.00
- pEC50 [1, 7]: > 8.00
- pEC50 [2, 8]: < 6.20

Compound: COc1cccc(OCC2CCc3cc([C@@H]4CC[C@](N)(COP(=O)(O)O)C4)ccc3C2)c1 (single isomer, unassigned) [Example 701]
- pEC50 [2, 5]: < 5.90

Compound: CCCCCC(=O)N1CCc2cc([C@H]3CC[C@@](N)(COP(=O)(O)O)C3)ccc2C1 [compound 617]
- pIC50 (human S1P1; [6]): 6.00 to 7.00
- pEC50 [2, 8]: < 6.20

Compound: COc1ccccc1CCC1CCc2cc([C@H]3CC[C@](N)(COP(=O)(O)O)C3)ccc2C1 (stereo partly drawn) [Example 697]
- activity as an agonist of S1P1 [1]: possessed activity as an agonist of S1P1

Compound: N[C@@]1(COP(=O)(O)O)CC[C@@H](c2ccc3c(c2)CC[C@H](OCCOC2CCCCC2)C3)C1 (single isomer, unassigned) [compound 585]
- pEC50 [1, 7]: 7.00 to 8.00
- pEC50 [2, 8]: < 6.20

Compound: CCCCCCN1CCc2cc([C@H]3CC[C@](N)(COP(=O)(O)O)C3)ccc2C1=O [compound 416]
- pIC50 (human S1P1; [6]): 5.00 to 6.00
- pEC50 [2, 8]: < 6.20

Compound: CCCCCCC1CCc2cc([C@H]3CC[C@](N)(COP(=O)(O)O)C3)ccc2O1 (stereo partly drawn) [compound 419]
- pEC50 [2, 8]: < 6.20
- pEC50 (hS1P1/CHO cells): 7.00 to 8.00

Compound: N[C@]1(COP(=O)(O)O)CCC(c2ccc3c(c2)CN(CCCc2ccccc2)C3=O)C1 (stereo partly drawn) [compound 614]
- pIC50 (human S1P1; [6]): 5.00 to 6.00
- pEC50 [1, 7]: 6.00 to 7.00
- pEC50 [2, 8]: < 6.20

Compound: CC1(C)c2cc([C@@H]3CC[C@](N)(COP(=O)(O)O)C3)ccc2C(=O)N1CCCc1ccccc1 [compound 615]
- pIC50 (human S1P1; [6]): 6.00 to 7.00
- pEC50 [1, 7]: 6.00 to 7.00
- pEC50 [2, 8]: < 6.20

Compound: CCCCCCC1CCc2nc([C@@H]3CC[C@@](N)(COP(=O)(O)O)C3)ccc2C1 (stereo partly drawn) [compound 612]
- pIC50 (human S1P1; [6]): 5.00 to 6.00
- pEC50 [1, 7]: 7.00 to 8.00
- pEC50 [2, 8]: < 6.20

Compound: COCCCCCC1CCc2cc([C@@H]3CC[C@](N)(COP(=O)(O)O)C3)ccc2C1 (single isomer, unassigned) [Example 692]
- pIC50 (human S1P1; [3]): 8.64
- pEC50 [2, 5]: < 6.20

Compound: CCOCCCC1CCc2cc([C@H]3CC[C@](N)(COP(=O)(O)O)C3)ccc2C1 (single isomer, unassigned) [Example 696]
- pEC50 [1, 4]: 8.92
- pEC50 [2, 5]: < 6.00

Compound: COc1cccc(CCC2CCc3cc([C@H]4CC[C@](N)(COP(=O)(O)O)C4)ccc3C2)c1 (single isomer, unassigned) [Example 694]
- pEC50 [1, 4]: 7.41
- pEC50 [2, 5]: < 5.90

Compound: COc1cccc(OCC2CCc3cc([C@@H]4CC[C@](N)(COP(=O)(O)O)C4)ccc3C2)c1 (single isomer, unassigned) [Example 702]
- pEC50 [2, 5]: < 6.20

Compound: COc1cccc(CCC2CCc3cc([C@H]4CC[C@](N)(COP(=O)(O)O)C4)ccc3C2)c1 (single isomer, unassigned) [Example 693]
- pEC50 [2, 5]: < 5.38

Compound: COc1ccccc1CCC1CCc2cc(C3CC[C@](N)(COP(=O)(O)O)C3)ccc2C1 (single isomer, unassigned) [Example 698]
- pEC50 [2, 5]: < 6.20
